Assay [1] has as its target T1, Bone morphogenetic protein receptor type-2 (Homo sapiens, UniProt Q13873).
T1 sequence (Q13873 whole entry): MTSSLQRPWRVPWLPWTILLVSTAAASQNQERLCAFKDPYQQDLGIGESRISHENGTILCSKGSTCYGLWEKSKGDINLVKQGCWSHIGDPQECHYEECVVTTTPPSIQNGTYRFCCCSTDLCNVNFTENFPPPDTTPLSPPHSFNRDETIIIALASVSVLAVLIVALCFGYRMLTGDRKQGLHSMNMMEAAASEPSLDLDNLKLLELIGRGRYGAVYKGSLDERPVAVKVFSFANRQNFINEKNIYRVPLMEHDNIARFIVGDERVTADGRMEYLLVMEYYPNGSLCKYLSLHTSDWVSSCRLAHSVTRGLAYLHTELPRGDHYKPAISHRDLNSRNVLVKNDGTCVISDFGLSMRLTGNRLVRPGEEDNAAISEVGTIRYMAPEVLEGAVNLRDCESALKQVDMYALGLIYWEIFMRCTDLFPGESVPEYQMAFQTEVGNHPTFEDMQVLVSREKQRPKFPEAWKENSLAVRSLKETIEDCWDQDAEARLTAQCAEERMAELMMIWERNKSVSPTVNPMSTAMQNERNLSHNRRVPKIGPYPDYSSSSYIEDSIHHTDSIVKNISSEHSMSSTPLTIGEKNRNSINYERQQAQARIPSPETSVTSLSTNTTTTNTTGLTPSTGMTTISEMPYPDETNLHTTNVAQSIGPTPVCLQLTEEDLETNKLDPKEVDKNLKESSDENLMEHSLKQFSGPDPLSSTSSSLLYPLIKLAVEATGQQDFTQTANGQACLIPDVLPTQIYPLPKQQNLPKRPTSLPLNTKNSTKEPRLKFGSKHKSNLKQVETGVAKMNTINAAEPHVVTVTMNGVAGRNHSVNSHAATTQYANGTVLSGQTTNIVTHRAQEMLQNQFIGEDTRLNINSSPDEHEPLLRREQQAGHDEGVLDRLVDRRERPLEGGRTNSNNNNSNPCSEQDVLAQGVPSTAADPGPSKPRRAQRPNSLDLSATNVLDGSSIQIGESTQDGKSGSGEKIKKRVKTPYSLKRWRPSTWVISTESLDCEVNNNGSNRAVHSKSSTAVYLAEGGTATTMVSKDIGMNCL

The target in assay [2] is Casein kinase I isoform epsilon (Homo sapiens, UniProt P49674).
Assay [3] concerns the target Tyrosine-protein kinase Lyn (Homo sapiens, UniProt P07948).
The target of assay [4] is T2, ATP-dependent 6-phosphofructokinase, platelet type (Homo sapiens, UniProt Q01813).
T2 sequence (Q01813 whole entry): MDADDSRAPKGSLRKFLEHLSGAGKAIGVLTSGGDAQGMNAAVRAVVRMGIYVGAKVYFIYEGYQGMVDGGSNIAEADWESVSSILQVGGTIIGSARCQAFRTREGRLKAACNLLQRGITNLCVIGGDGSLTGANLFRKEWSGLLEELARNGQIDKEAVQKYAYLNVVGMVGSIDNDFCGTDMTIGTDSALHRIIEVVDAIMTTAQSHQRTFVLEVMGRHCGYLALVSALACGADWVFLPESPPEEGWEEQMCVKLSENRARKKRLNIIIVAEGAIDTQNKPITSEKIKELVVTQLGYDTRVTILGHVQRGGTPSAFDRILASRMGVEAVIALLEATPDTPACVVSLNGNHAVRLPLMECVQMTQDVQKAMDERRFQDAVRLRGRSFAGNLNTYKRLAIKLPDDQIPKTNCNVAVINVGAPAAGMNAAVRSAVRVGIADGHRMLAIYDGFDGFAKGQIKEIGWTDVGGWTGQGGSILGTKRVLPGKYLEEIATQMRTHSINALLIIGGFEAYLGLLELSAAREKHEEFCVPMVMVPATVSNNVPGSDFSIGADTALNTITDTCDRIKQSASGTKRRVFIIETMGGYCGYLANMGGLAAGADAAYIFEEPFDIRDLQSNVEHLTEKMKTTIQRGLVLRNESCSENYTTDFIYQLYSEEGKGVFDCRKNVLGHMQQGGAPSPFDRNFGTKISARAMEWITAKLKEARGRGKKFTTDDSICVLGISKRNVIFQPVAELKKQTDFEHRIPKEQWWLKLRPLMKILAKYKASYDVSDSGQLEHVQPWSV

Assay [5] concerns the target T3, Tyrosine-protein kinase Tec (Homo sapiens, UniProt P42680).
T3 sequence (P42680 whole entry): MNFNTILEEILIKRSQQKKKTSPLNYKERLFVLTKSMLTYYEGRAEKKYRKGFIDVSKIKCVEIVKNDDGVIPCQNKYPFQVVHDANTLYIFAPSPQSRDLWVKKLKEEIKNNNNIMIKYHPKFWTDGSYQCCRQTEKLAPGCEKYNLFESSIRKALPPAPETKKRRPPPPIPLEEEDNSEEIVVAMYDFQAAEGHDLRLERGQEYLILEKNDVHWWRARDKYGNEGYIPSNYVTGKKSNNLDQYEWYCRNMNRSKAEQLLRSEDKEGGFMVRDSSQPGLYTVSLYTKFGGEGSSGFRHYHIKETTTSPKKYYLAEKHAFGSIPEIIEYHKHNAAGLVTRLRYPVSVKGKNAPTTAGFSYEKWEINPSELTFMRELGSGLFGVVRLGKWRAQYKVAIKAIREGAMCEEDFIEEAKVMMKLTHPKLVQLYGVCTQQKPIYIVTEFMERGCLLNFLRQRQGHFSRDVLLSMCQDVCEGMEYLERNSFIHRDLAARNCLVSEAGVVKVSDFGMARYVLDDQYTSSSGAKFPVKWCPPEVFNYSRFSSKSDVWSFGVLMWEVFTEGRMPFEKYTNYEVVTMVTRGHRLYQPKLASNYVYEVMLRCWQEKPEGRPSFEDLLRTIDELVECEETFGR

Calls of active or inactive are those of the source. For most assays here, no stated cut-off is given here; in the data, actives have a measured Kd and inactives only a lower limit. Some results are limits rather than exact numbers.

Tyrosine-protein kinase Lyn, sequence (P07948 whole entry): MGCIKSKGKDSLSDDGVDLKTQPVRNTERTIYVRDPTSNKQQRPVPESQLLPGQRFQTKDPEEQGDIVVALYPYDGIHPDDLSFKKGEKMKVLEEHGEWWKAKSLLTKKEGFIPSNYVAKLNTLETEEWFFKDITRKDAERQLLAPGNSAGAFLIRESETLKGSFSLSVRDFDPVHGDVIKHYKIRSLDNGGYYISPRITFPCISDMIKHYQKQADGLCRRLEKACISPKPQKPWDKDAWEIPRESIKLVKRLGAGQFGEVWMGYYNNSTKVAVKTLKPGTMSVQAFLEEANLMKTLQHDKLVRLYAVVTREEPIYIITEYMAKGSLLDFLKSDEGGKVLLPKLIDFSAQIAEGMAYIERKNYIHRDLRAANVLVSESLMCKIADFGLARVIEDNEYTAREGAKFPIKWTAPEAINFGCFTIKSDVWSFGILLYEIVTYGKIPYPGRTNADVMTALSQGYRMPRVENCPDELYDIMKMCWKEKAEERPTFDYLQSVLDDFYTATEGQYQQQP
Casein kinase I isoform epsilon, sequence (P49674 whole entry, canonical isoform): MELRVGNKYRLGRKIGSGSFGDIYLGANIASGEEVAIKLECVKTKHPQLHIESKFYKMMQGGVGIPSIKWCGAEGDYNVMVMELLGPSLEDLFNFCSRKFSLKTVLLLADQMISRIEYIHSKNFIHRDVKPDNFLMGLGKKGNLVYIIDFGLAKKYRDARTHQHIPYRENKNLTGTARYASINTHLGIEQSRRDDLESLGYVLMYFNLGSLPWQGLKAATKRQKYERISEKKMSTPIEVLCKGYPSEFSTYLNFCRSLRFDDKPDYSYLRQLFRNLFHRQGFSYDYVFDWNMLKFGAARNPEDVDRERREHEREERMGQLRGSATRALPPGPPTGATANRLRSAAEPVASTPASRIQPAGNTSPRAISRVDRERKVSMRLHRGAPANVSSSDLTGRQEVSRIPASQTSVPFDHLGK

What is called Kd is the free concentration of one partner at which half of the binding sites on the other are occupied at equilibrium, for simple one-to-one binding. `C[C@@H](c1ccc2nccn2c1)n1nnc2ncc(-c3cnn(C)c3)nc21` [SAVOLITINIB]: the Kd in assay [1], in assay [2], in assay [3], in assay [4] and in assay [5] was > 30 µM (inactive) each time.

With `N[C@@H]1CCCN(c2c(/C=C3\SC(=O)NC3=O)cccc2-c2ccccc2)C1`, the Kd in assay [1], in assay [2], in assay [3], in assay [4] and in assay [5] was > 30 µM (inactive) throughout.

Turning to `COc1cc(N2CCC(N3CCN(C)CC3)CC2)ccc1Nc1ncnc(Nc2ccccc2S(=O)(=O)C(C)C)n1` [ASP-3026], the Kd in assay [1] is > 30 µM (inactive); in assay [2], > 30 µM (inactive); in assay [3], > 30 µM (inactive); in assay [4] it was > 30 µM (inactive); in assay [5], 1.02 µM (active).

`Cc1cc([C@@H](C)Nc2ccccc2C(=O)O)c2nc(N3CCOCC3)cc(=O)n2c1` [AZD-6482]: the Kd in assay [1], in assay [2], in assay [3], in assay [4] and in assay [5] was > 30 µM (inactive) throughout.

As for `CN1CCC(CNc2ccc3ncc(-c4cccc(OC(F)(F)F)c4)n3n2)CC1` [SGI-1776], the Kd in assay [1], in assay [2], in assay [3], in assay [4] and in assay [5] was > 30 µM (inactive) each time.

Take `CC(C)Nc1cc(-c2c[nH]c(C(=O)N[C@H](CO)c3cccc(Cl)c3)c2)c(Cl)cn1` [ULIXERTINIB]: the Kd in assay [1], in assay [2], in assay [3], in assay [4] and in assay [5] was > 30 µM (inactive) in each case.

Take `O=c1sn(-c2cccc3ccccc23)c(=O)n1Cc1ccccc1` [TIDEGLUSIB]: the Kd in assay [1], in assay [2], in assay [3], in assay [4] and in assay [5] was > 30 µM (inactive) in each case.

Regarding `CNC(=O)c1cc(Oc2ccc(NC(=O)Nc3ccc(Cl)c(C(F)(F)F)c3)c(F)c2)ccn1` [REGORAFENIB], the Kd in assay [1], in assay [2], in assay [3], in assay [4] and in assay [5] was > 30 µM (inactive) each time.

With `Cc1ccc(-n2nc(C(C)(C)C)cc2NC(=O)NCc2cc(F)ccc2Oc2ccc3c(cnn3CCO)c2)cc1` [PEXMETINIB], the Kd in assay [1] is > 30 µM (inactive); in assay [2] it was > 30 µM (inactive); in assay [3], 2.5 µM (active); in assay [4], > 30 µM (inactive); in assay [5] it was > 30 µM (inactive).

As to `CCN1CCN(Cc2ccc(-c3cc4c(N[C@H](C)c5ccccc5)ncnc4[nH]3)cc2)CC1` [AEE-788], the Kd in assay [1], in assay [2], in assay [3], in assay [4] and in assay [5] was > 30 µM (inactive) in each case.

With `CN(C)C(=O)c1cc2cnc(Nc3ccc(N4CCNCC4)cn3)nc2n1C1CCCC1` [RIBOCICLIB], the Kd in assay [1], in assay [2], in assay [3], in assay [4] and in assay [5] was > 30 µM (inactive) each time.

`Cn1cc(-c2ccc3nnc(C(F)(F)c4ccc5ncccc5c4)n3n2)cn1` [JNJ-38877605]: the Kd in assay [1], in assay [2], in assay [3], in assay [4] and in assay [5] was > 30 µM (inactive) throughout.

For the molecule `CC[C@H](Nc1ncnc2[nH]cnc12)c1nc2cccc(F)c2c(=O)n1-c1ccccc1` [IDELALISIB], the Kd in assay [1], in assay [2], in assay [3], in assay [4] and in assay [5] was > 30 µM (inactive) each time.

With `CN1CC[C@@H](c2c(O)cc(O)c3c(=O)cc(-c4ccccc4Cl)oc23)[C@@H]1CO`, the Kd in assay [1], in assay [2], in assay [3], in assay [4] and in assay [5] was > 30 µM (inactive) each time.

On to `CN1N=C(N)c2cn([C@@H]3O[C@H](COP(=O)(O)O)[C@@H](O)[C@H]3O)c3ncnc1c23` [TRICIRIBINE PHOSPHATE], for which the Kd in assay [1], in assay [2], in assay [3], in assay [4] and in assay [5] was > 30 µM (inactive) throughout.

With `O=C(c1ccc(F)c(F)c1Nc1ccc(I)cc1F)N1CC(O)([C@@H]2CCCCN2)C1` [COBIMETINIB], the Kd in assay [1], in assay [2], in assay [3], in assay [4] and in assay [5] was > 30 µM (inactive) throughout.

As for `Cc1cc(-c2cc(O)ccc2Cl)cc2nnc(Nc3ccc(OCCN4CCCC4)cc3)nc12`, the Kd in assay [1] is 0.003 µM (active); in assay [2], > 30 µM (inactive); in assay [3] it was > 30 µM (inactive); in assay [4], > 30 µM (inactive); in assay [5], > 30 µM (inactive).

The values above are taken from ChEMBL document CHEMBL3991601, “The target landscape of clinical kinase drugs” (Science, 2017).
